Data set [1] concerns the target T1, human NTCP (Homo sapiens, UniProt Q14973).
T1 construct: expressed in transfected cells
T1 sequence (Q14973 1-349): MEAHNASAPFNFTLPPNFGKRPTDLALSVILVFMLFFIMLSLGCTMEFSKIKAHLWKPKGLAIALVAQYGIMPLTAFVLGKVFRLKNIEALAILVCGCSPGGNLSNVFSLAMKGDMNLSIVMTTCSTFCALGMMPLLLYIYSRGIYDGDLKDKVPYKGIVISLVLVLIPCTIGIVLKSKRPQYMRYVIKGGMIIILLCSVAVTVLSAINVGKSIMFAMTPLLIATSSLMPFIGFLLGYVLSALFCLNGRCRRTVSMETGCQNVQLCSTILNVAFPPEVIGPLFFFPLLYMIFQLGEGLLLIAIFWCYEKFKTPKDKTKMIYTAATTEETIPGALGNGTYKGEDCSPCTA
The data set can be described thus: [3H]taurocholic acid ([3H]TC) transport inhibition in NTCP-HEK293 cells. Type of data set: cell-based. As to conditions: for IC50: NTCP-HEK293 cells.

Data set [2] deals with T1, human NTCP. As to the kind of experiment: [3H]preS1 peptide. Type of data set: binding. The conditions noted are these: for remaining activity at 100 µM / inhibition at 100 µM: 100 µM inhibitor; for remaining activity at 100 µM: 5 nM [3H]preS1, pre-screen, read-out: remaining [3H]preS1 binding compared to untreated control; for virus/preS1 selectivity (in words): [3H]preS1 binding versus [3H]TC uptake inhibition; for [3H]preS1 binding inhibition (in words): 100 µM inhibitor where from Figure 6, SAR statements; for inhibition at 100 µM: 5 nM [3H]preS1, read-out: inhibition of [3H]preS1 peptide binding.

Data set [3] deals with NTCP-HepG2 cells. As to the kind of experiment: MTT cytotoxicity assay in NTCP-HepG2 cells. The format is cell-based, human. As to conditions: NTCP-HepG2 cells, 5, 50 and 300 µM, 6 h incubation. Background: Tetrazolium dyes change colour on reduction, which living cells bring about.
Data set [4] deals with HDV. The data set can be described thus: In vitro HDV infection of NTCP-HepG2 cells (HDAg immunostaining). The format is cell-based, Hepatitis D virus. The conditions noted are these: 5 µM to 300 µM.
Where [5] appears, read: 95% confidence interval, inhibition of 1 µM [3H]TC uptake, 10 min, 37 °C, read-out: IC50 ([3H]TC Uptake).
Setting [6] is: 95% confidence interval, inhibition of 5 nM [3H]preS1 binding, NTCP-HEK293 cells, 10 min, 37 °C, read-out: IC50 ([3H]preS1 Binding).
Where [7] appears, read: 5 nM [3H]preS1, NTCP-HEK293 cells, read-out: IC50 [3H]preS1 binding inhibition (single value).
Where [8] appears, read: 1 µM [3H]TC, read-out: IC50 taurocholic acid uptake inhibition (single value).

Entries after “also recorded” stand apart in the source; their conditions may differ.

One may read the IC50 as the concentration that inhibits the measured activity by half. Regarding `O=C(Nc1ccc(Cl)cc1)c1cc(Oc2ccc(Cl)cc2)ccc1NS(=O)(=O)c1ccc(Cl)cc1` [A000028897], the IC50 in data set [1] (setting [5]) is 16 to 62 µM. In data set [2], the remaining activity at 100 µM is below 50% and the “virus/preS1 selectivity (in words)” value is “more or less non-selective”. In addition, the 50% inhibitory concentration (IC50) in data set [2] (setting [6]) lay within 3 to 24 µM. Moreover, the “Cytotoxicity (in words)” value in data set [3] was “obvious cytotoxicity even at low (5 µM) concentrations; also recorded: toxic”.

As to `O[C@@H](c1ccccc1)[C@@H](c1ccccn1)[C@H](Nc1ccccn1)c1cccc(Br)c1` [A000289041], in data set [1] (setting [5]), the IC50 was above 1000 µM. Besides, in data set [2], the “[3H]preS1 binding inhibition (in words)” value is “relatively high” and the remaining activity at 100 µM was below 50%. The half-inhibitory concentration (IC50) in data set [2] (setting [6]) lay in the range of 35 to 224 µM.

A word on the inhibition: it is the relative decrease from the control value, in per cent. As to `O[C@H](c1ccc2ccccc2c1)[C@H](c1ccccn1)[C@@H](Nc1ccccn1)c1ccccc1` [A000294559], in data set [2], the “[3H]preS1 binding inhibition (in words)” value was “significant but less potent” and the inhibition at 100 µM was at most 50%.

As for `O[C@H](c1ccccc1)[C@@H](c1ccc2ccccc2n1)[C@H](Nc1ccccn1)c1ccccc1` [A000295013], the IC50 in data set [1] (setting [5]) was above 1000 µM; in data set [2] (setting [7]), around 130 µM; in data set [2] (setting [6]), 73 to 194 µM. Moreover, the remaining activity at 100 µM in data set [2] is below 50%.

For the molecule `O[C@H](c1ccccc1)[C@@H](c1ccccn1)[C@H](Nc1ccc(F)cn1)c1ccccc1` [A000295230], in data set [2], the “[3H]preS1 binding inhibition (in words)” value is given as “significant but less potent” and the inhibition at 100 µM is at most 50%.

On to `COc1ccc([C@H](O)[C@H](c2ccccn2)[C@@H](Nc2ccccn2)c2ccccc2)cc1` [A000295231], for which the IC50 was 780 µM in data set [1] (setting [8]), 341 to 1220 µM in data set [1] (setting [5]), 17 µM in data set [2] (setting [7]) and 4 to 29 µM in data set [2] (setting [6]). Also, in data set [2], the “[3H]preS1 binding inhibition (in words)” value is “even further improved the inhibitory potency”. Besides, in data set [2], the remaining activity at 100 µM is below 50%. Moreover, the “virus/preS1 selectivity (in words)” value in data set [2] is on record as “some selectivity towards the virus receptor function of NTCP”. Besides, the “inhibition of in vitro HDV infection (in words)” value in data set [4] is “significant concentration-dependent inhibition; also recorded: active against in vitro HDV infection”.

For the molecule `O[C@H](c1ccccc1)[C@@H](c1ccccn1)[C@H](Nc1ccccc1)c1ccccc1` [A000295238], the “[3H]preS1 binding inhibition (in words)” value in data set [2] is “inactive”.

Take `COc1ccc(N[C@H](c2ccccc2)[C@H](c2ccccn2)[C@H](O)c2ccccc2)nc1` [A000295480]: the half-maximal inhibitory concentration (IC50) in data set [1] (setting [5]) was 145 to 1320 µM. Besides, in data set [2], the “[3H]preS1 binding inhibition (in words)” value was “relatively high”, the remaining activity at 100 µM was below 50% and the “virus/preS1 selectivity (in words)” value is “more or less non-selective”. Moreover, in data set [2] (setting [6]), the half-maximal inhibitory concentration (IC50) was in the range of 32 to 297 µM.

Consider `Nc1ccc([C@H](O)[C@H](c2ccccn2)[C@@H](Nc2ccccn2)c2ccccc2)cc1` [A000295724], for which the “[3H]preS1 binding inhibition (in words)” value in data set [2] was “inactive”.

As to `O[C@@H](c1ccccc1)[C@H](c1ccccn1)[C@@H](Nc1ccc(Cl)cn1)c1ccccc1` [A000296575], in data set [2], the “[3H]preS1 binding inhibition (in words)” value is “significant but less potent” and the inhibition at 100 µM was at most 50%.

With `Oc1cccc([C@H](O)[C@H](c2ccccn2)[C@@H](Nc2ccccn2)c2ccccc2)c1` [A000296584], the “[3H]preS1 binding inhibition (in words)” value in data set [2] is “significant, but less active inhibitors”.

Take `O[C@@H](c1ccccc1)[C@@H](c1ccccn1)[C@H](Nc1ccccn1)c1ccsc1` [A000344053]: in data set [2], the “[3H]preS1 binding inhibition (in words)” value was “significant but less potent” and the inhibition at 100 µM was at most 50%.

`O[C@@H](c1ccccc1)[C@H](c1ccccn1)[C@@H](Nc1ccccn1)c1ccccc1` [S957291]: the “[3H]TC uptake inhibition (in words)” value in data set [1] (100 µM inhibitor, Figure 6) is listed as “significantly increased the inhibitory potency”. For the same molecule, in data set [2], the “[3H]preS1 binding inhibition (in words)” value was “significantly increased the inhibitory potency”.

`O[C@@H](c1cccnc1)[C@H](c1ccccn1)[C@@H](Nc1ccccn1)c1ccccc1` [S958009]: the “[3H]preS1 binding inhibition (in words)” value in data set [2] was “inactive”.

With `COc1cccc([C@H](O)[C@H](c2ccccn2)[C@@H](Nc2ccccn2)c2ccccc2)c1` [S963601], the “[3H]preS1 binding inhibition (in words)” value in data set [2] is given as “significant, but less active inhibitors”.

On to `O[C@H](c1ccc([C@@H](O)[C@@H](c2ccccn2)[C@H](Nc2ccccn2)c2ccccc2)cc1)[C@@H](c1ccccn1)[C@H](Nc1ccccn1)c1ccccc1` [S973509], for which the IC50 is 490 µM in data set [1] (setting [8]), 202 to 775 µM in data set [1] (setting [5]), 7 µM in data set [2] (setting [7]) and 3 to 10 µM in data set [2] (setting [6]). For the same molecule, in data set [2], the remaining activity at 100 µM was below 50%. Also, the “virus/preS1 selectivity (in words)” value in data set [2] is given as “some selectivity towards the virus receptor function of NTCP”. Besides, the “inhibition of in vitro HDV infection (in words)” value in data set [4] is reported as “significant concentration-dependent inhibition; also recorded: active against in vitro HDV infection”.

On to `O[C@@H](c1ccccc1)[C@@H](c1ccccn1)[C@H](Nc1ccccn1)c1cccc2ccccc12` [S973515], for which the concentration for half-maximal inhibition (IC50) in data set [1] (setting [5]) lay in the range of 413 to 1240 µM. Further, in data set [2], the “[3H]preS1 binding inhibition (in words)” value is “relatively high” and the remaining activity at 100 µM was below 50%. In data set [2] (setting [6]), the IC50 lay within 39 to 148 µM.

Regarding `O=Cc1cccc([C@@H]([C@H](Nc2ccccn2)c2ccccc2)[C@@H](O)c2ccccc2)n1` [S985852], the IC50 was 24 µM in data set [1] (setting [8]), 13 to 34 µM in data set [1] (setting [5]), around 15 µM in data set [2] (setting [7]) and 8 to 24 µM in data set [2] (setting [6]). In addition, the remaining activity at 100 µM in data set [2] was below 50%. For the same molecule, in data set [2], the “virus/preS1 selectivity (in words)” value was “more or less non-selective”. In addition, in data set [4], the “inhibition of in vitro HDV infection (in words)” value was “significant concentration-dependent inhibition; also recorded: active against in vitro HDV infection”. In addition, the “Cytotoxicity (in words)” value in data set [3] is recorded as “critical cytotoxicity at 300 µM”.

(Values after article PMC8068820 (Viruses, 2021).)
